Patent US11175282B2, “Method for predicting and monitoring clinical response to immunomodulatory therapy” (BIOHOPE Scientific Solutions for Human Health S.L., priority 2017, dated 2021)

Columns and labels:
[1] = tested on: renal transplanted patient PBMCs; test: Immunobiogram: disc diffusion gradient in collagen-methylcellulose hydrogel in 12 channelled well plates, clinical study; assay type: cell-based, human; details: patient 211; compared with tacrolimus and prednisone curves; FIG. 31
Experimental: A multicenter study was conducted with a cohort of 70 renal transplant recipient patients, also 10 healthy volunteers were included for comparison purposes. The inclusion criteria consisted in men and women aged over 18 years with kidney transplant performed at least 1 year prior to inclusion. Patients present different defined and registered immunological risk profiled when included. Transplant patient clinical history includes complete recording of previous and updated immunological relevant data at the inclusion time.
Sample collection for the immunobiogram implementation consisted in two sodium heparin Vacutainer® tubes. Human PBMCs extraction from blood sample was performed using density gradient centrifugation (760 G during 15-20 minutes at RT) in adequate hydrophilic isosmotic polysaccharide solutions with a density of 1.077 g/ml (Pancoll, PAN BIOTECH GmbH or Ficoll, GE Healthcare). Cells were extracted with pipette from the gradient interphase and then washed in HBSS w/o Ca, Mg and Phenol red (Lonza), and resuspended in X-VIVO 15 (Lonza) medium. Obtained cells were frozen in cryovials with serum free medium (Profreeze-CDM, Lonza) DMSO (Sigma Aldrich) 7.5% and storage in liquid nitrogen until use. […] After the supernatant was discarded, cells were re-suspended in X-VIVO medium for further count and viability quantification. […]

[2] = tested on: stimulated human PBMCs; test: Liquid media serial dilution assay in standard 96 well microplate, resazurin read-out; assay type: cell-based
Experimental: Human PBMC were extracted for Buffy coat bags from blood bank volunteer donation using density gradient centrifugation in adequate hydrophilic isosmotic polysaccharide solutions with a density of 1.077 g/ml (Pancoll, PAN BIOTECH GmbH or Ficoll, GE Healthcare) at 760 G during 20 minutes at RT. Cells were extracted with pipette from the gradient interphase and then washed in HBSS w/o Ca, Mg and Phenol red (Lonza), and resuspended in X-VIVO 15 (Lonza) medium. Obtained cells were frozen in cryovials with serum free medium (Profreeze-CDM, Lonza) DMSO (Sigma Aldrich) 7.5% and storage until use in liquid nitrogen.
A few days later, removed vials from liquid nitrogen were immediately thawed in a 37° C. water bath for 2 minutes. […] After supernatant discard, cells were re-suspended in X-VIVO medium for further count and viability quantification.
After thawing PBMCs viability was quantified by trypan blue and Neubauer chamber. […]
After 10-12 hours of incubation with presto blue, 100 ul of each well were transferred to a 96 well ELISA plate, and then absorbance at 570 and 620 nm wavelength was quantified in a robotic absorbance microplate reader (Tekan, Infinite F50). Final values were obtained as result of absorbance at 570 nm minus absorbance at 620 nm, following instructions from presto blue manufacturer (Thermo Fisher). […]

[3] = tested on: Human activated PBMC; test: Disc diffusion assay in semisolid media (agarose 0.5% / collagen 0.3% hydrogels), 6 well plates, resazurin read-out; assay type: cell-based; details: different disc loads, FIG. 12
Experimental: PBMC T-Cells were activated though incubation with Dynabeads Human T-activator CD3/CD28 agonistic antibodies (Thermo Fisher, cat #111.32D) using a ratio 1:2 (dynabeads:PBMC) in a cell culture bottle. PBMC in the absent of dynabeads were also cultured as negative control of stimulation.
Paper discs of 6 mm diameter discs were used as immunosuppressant delivery units. Discs were obtained from manual drill of Whatman™, 3 mm CHR chromatography paper sheet or using ready to use commercial paper disc (DDbiolab). Discs were sterilized by autoclave. Immunosupressant drugs (Sigma Aldrich) was dissolved in pure ethanol (Sigma Aldrich) at 20 mg/ml and stored as stock solution at −20° C. till use. […]
Resazurin (blue) transition to resofurin (pink) was monitored with the naked eye or checked after overnight incubation depending on assay design. […] Results were collected through images acquisition with visible light (Sanyo camera S1070 and E1075), ultraviolet light (UVltec Geldoc Gel Light Imaging System) and fluorescence microplate multyreader (PHERAstar® FSX Multimode Microplate Reader from BMG LABTECH or Spark® 10M Tecan.). Inhibitory gradients halos or fronts induced by discs loaded with immunosuppressants were quantified with ImageJ software in a semi-automated process or Spark control v1.2.25 software. […]

[4] = general solubility profile, no test described; cited from earlier work

SMILES	Immunobiogram response curve [1]	recovery of PBMC proliferative capacity versus positive control ([2]; 96 standard wells microplate serial dilutions, all concentration tested, even femtomolar, FIGS. 14 and 15)	inhibitory effect over stimulated human PBMCs ([2]; standard wells, all the concentrations tested (even at femtomolar levels))	inhibitory halos over activated human PBMC [3]	aqueous solubility [4]
COc1c(C)c2c(c(O)c1C/C=C(\C)CCC(=O)OCCN1CCOCC1)C(=O)OC2 [MMF, micofenolate]	less responsive	–	–	–	–
CO[C@H]1C[C@@H]2CC[C@@H](C)[C@@](O)(O2)C(=O)C(=O)N2CCCC[C@H]2C(=O)O[C@H]([C@H](C)C[C@@H]2CC[C@@H](OCCO)[C@H](OC)C2)CC(=O)[C@H](C)/C=C(\C)[C@@H](O)[C@@H](OC)C(=O)[C@H](C)C[C@H](C)/C=C/C=C/C=C/1C [Everolimus]	–	did not recover proliferative capacity comparable with positive control level	at least some inhibitory level effect	Dose dependant inhibitory halos	–
COc1c(C)c2c(c(O)c1C/C=C(\C)CCC(=O)O)C(=O)OC2 [Mycophenolic acid, Mycophenolic Acid]	–	–	–	Dose dependant inhibitory halos	good aqueous solubility
